Where a SMILES comes first, the peptide text is derived from it.
Experiments:
[1] = Radiochemical purity by HPLC on storage at room temperature; assay type: physicochemical; details: three days at room temperature
Description: The labeling efficiency was analyzed by instant thin layer chromatography (iTLC) and was typically >98%. For iTLC analysis, 1 μL of diluted labeling solution was applied to a strip of iTLC-SA chromatography paper (Agilent P/N A120B12, 114×2.5 mm) and developed in 0.1M citrate buffer (8 cm solvent migration) to assess free ^177Lu (Rf >0.5) and [^177Lu]-6555 (Rf ˜0). The iTLC strips were analyzed using an Eckert & Ziegler AR-2000 Radio-TLC Imaging Scanner. The radiochemical purity was analyzed by high performance chromatography (HPLC) and was typically >90%. Briefly, the product was analyzed using a Phenomenex Luna 3.0 μm C18(2), 100A, 150 mm×4.6 mm column. Eluent A: 50 mM ammonium acetate in water, eluent B: acetonitrile. Gradient: 2% B from 0-5 min; 2% to 26% B from 5-20 min; 26% to 98% B from 20-25 min; 98% to 2% B from 25-26 min; 2% B from 26-30 min. Flow rate: 1.0 mL/min, Radio-HPLC detector: NaI (Eckert & Zeigler FC-1000), UV: 215 nm. The radiochemical purity remained >90% for three days at room temperature.
The above depicted radiopharmaceutical [^177Lu]-6952 can be prepared as described in Example 19 using the radiochemical precursor 6952 (Example 14 above). The labeling efficiency was analyzed by instant thin layer chromatography (iTLC) and was typically >98%. […] The iTLC strips were analyzed using an Eckert & Ziegler AR-2000 Radio-TLC Imaging Scanner. The radiochemical purity was analyzed by high performance chromatography (HPLC) and was typically >90%. Briefly, the product was analyzed using a Phenomenex Luna 3.0 m C18(2), 100A, 150 mm×4.6 mm column. […]
The labeling efficiency was analyzed by instant thin layer chromatography (iTLC) and was typically >95%. […] The iTLC strips were analyzed using an Eckert & Ziegler AR-2000 Radio-TLC Imaging Scanner. The radiochemical purity was analyzed by high performance chromatography (HPLC) and was typically >95%. Briefly, the product was analyzed using a Phenomenex Luna 3.0 m C18(2), 100Å, 150 mm×4.6 mm column. […]
The labeling efficiency was analyzed by instant thin layer chromatography (iTLC) and was typically >95%. […]

[2] = test system: HEK-mFAP tumor xenografts; test: In vivo biodistribution study of [177Lu]-6522, gamma counting; details: for Mean (% ID/g): i.v.
[3] = test system: HEK-mFAP tumor xenografts; test: Efficacy and survival study, single injection; assay type: in vivo, mouse; details: single IV injection
Description: The aim of the study was to assess the therapeutic efficacy of a single injection of ^177Lu-PNT2004 ([^177Lu]-6522) by evaluating tumor growth delay and median survival. ^177Lu-PNT2004 ([^177Lu]-6522) was provided in 3 concentrations, ready for injection (80 μL/mouse), and the injected dose was determined using a well counter (Capintec calibration) #430x10.
A total of 30 HEK-mFAP tumor-bearing mice were used for the study.
Mouse health checks were performed throughout the study on a weekly basis including body weight measurements. Tumor growth was monitored weekly with caliper measurements (tumor volume=length×width^2×0.5). Study endpoints include tumor size >2 cm in any dimension, tumor ulceration, mouse is moribund, and >15% body weight lost from the last measurement. Mice were housed 5 to a cage with ad libitum access to food and water in 20° C. ambient temperature, 40%-50% humidity, and 12-hour light/12-hour dark cycle.
The mice were randomized into 5 groups, n=6 mice per group. The treatment compositions (1 through 5 above) were injected IV through the tail vein using a catheter (mounted with a 30 Ga needle). Injected doses were determined using a well counter (Capintec calibration). Tumor growth was monitored weekly with caliper measurements, and the mice were followed for survival.

C[C@@H](NC(=O)c1ccc(CNC(=O)CN2CCN3CCN4CCN(CC2)CC(=O)[O][Lu]([O]C(=O)C3)[O]C(=O)C4)cc1)C(=O)N1CCC[C@H]1B(O)O [[^177Lu]-6555]
radiochemical purity remained [1]: > 90%

C[C@@H](NC(=O)[C@H]1CC[C@H](CNC(=O)CN2CCN3CCN4CCN(CC2)CC(=O)[O][Lu]([O]C(=O)C3)[O]C(=O)C4)CC1)C(=O)N1CCC[C@H]1B(O)O [[^177Lu]-6952]
radiochemical purity remained [1]: > 90%

CC(C)[C@H](NC(=O)CNC(=O)CNC(=O)CN1CCN2CCN3CCN(CC1)CC(=O)[O][Lu]([O]C(=O)C2)[O]C(=O)C3)C(=O)N[C@H](C)C(=O)N1CCC[C@H]1B(O)O [[^177Lu]-6522] (HELM PEPTIDE1{[O=C1CN2CCN3CCN(CC(=O)[*:2])CCN(CC2)CC(=O)[O][Lu]([O]1)[O]C(=O)C3].G.G.V.[dA].[OB(O)[C@@H]1CCCN1[*:1]]}$$$$V2.0)
Mean (% ID/g) ([2]; Blood, 4 h p.i.): 0.3063 % ID/g
Mean (% ID/g) ([2]; Blood, 24 h p.i.): 0.0085 % ID/g
Mean (% ID/g) ([2]; Blood, 48 h p.i.): 0.0029 % ID/g
Mean (% ID/g) ([2]; Blood, 168 h p.i.): 0.0015 % ID/g
Mean (% ID/g) ([2]; Bone, 4 h p.i.): 1.8037 % ID/g
Mean (% ID/g) ([2]; Bone, 24 h p.i.): 0.2658 % ID/g
Mean (% ID/g) ([2]; Bone, 48 h p.i.): 0.4106 % ID/g
Mean (% ID/g) ([2]; Bone, 168 h p.i.): 0.3959 % ID/g
Mean (% ID/g) ([2]; Brain, 4 h p.i.): 0.0281 % ID/g
Mean (% ID/g) ([2]; Brain, 24 h p.i.): 0.0036 % ID/g
Mean (% ID/g) ([2]; Brain, 48 h p.i.): 0.0033 % ID/g
Mean (% ID/g) ([2]; Brain, 168 h p.i.): 0.0020 % ID/g
Mean (% ID/g) ([2]; Heart, 4 h p.i.): 0.1528 % ID/g
Mean (% ID/g) ([2]; Heart, 24 h p.i.): 0.0332 % ID/g
Mean (% ID/g) ([2]; Heart, 48 h p.i.): 0.0311 % ID/g
Mean (% ID/g) ([2]; Heart, 168 h p.i.): 0.0256 % ID/g
Mean (% ID/g) ([2]; Kidneys, 4 h p.i.): 2.3525 % ID/g
Mean (% ID/g) ([2]; Kidneys, 4 h p.i., listed as Compound #2): 2.35±0.51 % ID/g
Mean (% ID/g) ([2]; Kidneys, 24 h p.i.): 0.9585 % ID/g
Mean (% ID/g) ([2]; Kidneys, 48 h p.i.): 0.5318 % ID/g
Mean (% ID/g) ([2]; Kidneys, 168 h (day 7) p.i.): 0.1670 % ID/g
Mean (% ID/g) ([2]; Kidneys, 168 h (day 7) p.i., listed as Compound #2): 0.17±0.02 % ID/g
Mean (% ID/g) ([2]; Liver, 4 h p.i.): 0.3774 % ID/g
Mean (% ID/g) ([2]; Liver, 24 h p.i.): 0.1585 % ID/g
Mean (% ID/g) ([2]; Liver, 48 h p.i.): 0.1237 % ID/g
Mean (% ID/g) ([2]; Liver, 168 h p.i.): 0.0725 % ID/g
Mean (% ID/g) ([2]; Lung, 4 h p.i.): 0.3331 % ID/g
Mean (% ID/g) ([2]; Lung, 24 h p.i.): 0.0306 % ID/g
Mean (% ID/g) ([2]; Lung, 48 h p.i.): 0.0312 % ID/g
Mean (% ID/g) ([2]; Lung, 168 h p.i.): 0.0257 % ID/g
Mean (% ID/g) ([2]; Muscle, 4 h p.i.): 0.4649 % ID/g
Mean (% ID/g) ([2]; Muscle, 24 h p.i.): 0.0315 % ID/g
Mean (% ID/g) ([2]; Muscle, 48 h p.i.): 0.0518 % ID/g
Mean (% ID/g) ([2]; Muscle, 168 h p.i.): 0.0604 % ID/g
Mean (% ID/g) ([2]; Pancreas, 4 h p.i.): 0.2167 % ID/g
Mean (% ID/g) ([2]; Pancreas, 24 h p.i.): 0.0347 % ID/g
Mean (% ID/g) ([2]; Pancreas, 48 h p.i.): 0.0275 % ID/g
Mean (% ID/g) ([2]; Pancreas, 168 h p.i.): 0.0197 % ID/g
Mean (% ID/g) ([2]; Skin, 4 h p.i.): 0.9769 % ID/g
Mean (% ID/g) ([2]; Skin, 24 h p.i.): 0.1158 % ID/g
Mean (% ID/g) ([2]; Skin, 48 h p.i.): 0.0906 % ID/g
Mean (% ID/g) ([2]; Skin, 168 h p.i.): 0.0837 % ID/g
Mean (% ID/g) ([2]; Small intestine, 4 h p.i.): 0.2091 % ID/g
Mean (% ID/g) ([2]; Small intestine, 24 h p.i.): 0.0580 % ID/g
Mean (% ID/g) ([2]; Small intestine, 48 h p.i.): 0.0499 % ID/g
Mean (% ID/g) ([2]; Small intestine, 168 h p.i.): 0.0277 % ID/g
Mean (% ID/g) ([2]; Spleen, 4 h p.i.): 0.2587 % ID/g
Mean (% ID/g) ([2]; Spleen, 24 h p.i.): 0.1418 % ID/g
Mean (% ID/g) ([2]; Spleen, 48 h p.i.): 0.1340 % ID/g
Mean (% ID/g) ([2]; Spleen, 168 h p.i.): 0.1437 % ID/g
Mean (% ID/g) ([2]; Stomach, 4 h p.i.): 0.1706 % ID/g
Mean (% ID/g) ([2]; Stomach, 24 h p.i.): 0.0528 % ID/g
Mean (% ID/g) ([2]; Stomach, 48 h p.i.): 0.0331 % ID/g
Mean (% ID/g) ([2]; Stomach, 168 h p.i.): 0.0210 % ID/g
Mean (% ID/g) ([2]; Tumor, 4 h p.i.): 33.0435 % ID/g
Mean (% ID/g) ([2]; Tumor, 4 h p.i., listed as Compound #2): 33.04±5.29 % ID/g
Mean (% ID/g) ([2]; Tumor, 24 h p.i.): 12.9944 % ID/g
Mean (% ID/g) ([2]; Tumor, 48 h p.i.): 7.6749 % ID/g
Mean (% ID/g) ([2]; Tumor, 168 h p.i.): 3.9910 % ID/g
localization in tumor and normal tissue uptake ([2]; up to 168 h p.i.): high localization in tumor xenografts and low normal tissue uptake
survival benefit ([3]; 15 MBq): did not translate in a survival benefit
tumor growth delay ([3]; 15 MBq): tumor growth delay was observed
survival benefit ([3]; 30 MBq): did not translate in a survival benefit
tumor growth delay ([3]; 30 MBq): tumor growth delay was observed
survival benefit compared to the vehicle or precursor group ([3]; 60 MBq): statically significant survival benefit

From US11707539B2, “FAP-targeted radiopharmaceuticals and imaging agents, and uses related thereto” (Trustees of Tufts College, priority 2020, dated 2023)
